Measured values as given in patent US10927085B2, “1,2-naphthoquinone based derivative and method of preparing the same” (HUEN Co., Ltd., priority 2013, dated 2021).
Read-outs that look alike come from different tables or passages of the source.

Tests used:
cells = assay: Measurement of lactate change amount within cells; format: cell-based
Method: Cells were treated with 400 μl of 6% PCA, and then collected and extracted. Centrifugation (13,000 rpm, 10 min) was performed. A precipitate was dried using a Speed-Vac and then a weight of dried precipitate was measured. A supernatant was neutralized using 400 μl of 1 M KOH and a final volume thereof was adjusted to 1 ml using 0.33 M KH2PO4/K2HPO4, pH 7.5. Centrifugation (13,000 rpm, 10 min) was performed and the amount of lactate in a supernatant was measured (Megazyme, K-LATE).

C57BL/6J Lep ob/ob mice = assay: Weight loss effects in obese mice (ob/ob); format: in vivo; conditions: for weight increase ratio vs controls (FIG. 1): Exp. Ex. 3-1: 6.5 week-old ob/ob mice, 100 mg/kg orally once every day for two weeks
Method: 6.5 week-old C57BL/6J Lep ob/ob mice having genetic obesity characteristics available from ORIENTBIO were prepared. Two mice were raised in each polycarbonate breeding cage (200 W×260 L×130H (mm), Three-shine) in which temperature was 22 to 24° C., relative humidity was 30 to 50%, illuminance was 150 to 300 lux, night and day were 12 hours, and exhaust was performed at 10 to 15 air changes per hour. As a feed, low fat diet (11.9 kcal % fat, 5053, Labdiet) manufactured by ORIENTBIO was used. The feed was contained in a feeder and free intake was allowed. As drinking water, water, which was contained in a 250 mL polycarbonate based bottle, purified through a filter and a sterilizer was used and free intake was allowed.
For administration, a disposable syringe fitted with a sonde for oral administration was used and 10 ml/kg of the compound was orally administered into the stomach. As controls, three C57BL/6J Lep ob/ob mice were administered 0.1% SLS in an amount of 100 mg/kg in the same manner as described above. After administration, a time-dependent weight increase ratio was measured and results are illustrated in FIG. 1 below.
Weights of the experimental animals were measured immediately before administration of a test material and six times a week from an administration initiation day to a test termination day. Increased total weights were calculated by subtracting weights measured on an experiment initiation day from weights measured one day before an experiment termination day. Food intake amounts were calculated by measuring feed supply amounts and remaining amounts twice a week from an initiation day of test material administration to a test termination day for each individual.
Weight increase ratios, weight change, and intake amounts depending on administration time were measured and results are illustrated in FIG. 2 below.
Weight increase ratios, weight change, and intake amounts depending on administration time were measured and results are illustrated in FIG. 3 below.
Weight increase ratios, weight change, and intake amounts depending on administration time were measured and results are illustrated in FIG. 4 below.
Weight increase ratios, weight change, and intake amounts depending on administration time were measured and results are illustrated in FIG. 5 below.
Weight increase ratios, weight change, and intake amounts depending on administration time were measured and results are illustrated in FIG. 6 below.
Weight increase ratios, weight change, and intake amounts depending on administration time were measured and results are illustrated in FIG. 7 below.
Weight increase ratios, weight change, and intake amounts depending on administration time were measured and results are illustrated in FIG. 8 below.

NQO1 protein = NQO1 protein (Homo sapiens, UniProt P15559); assay: NQO1 activity measurement (cytochrome C reduction); format: biochemical
Method: An enzyme reaction solution included 25 mM Tris/HCl (pH 7.4), 0.14% bovine serum albumin, 200 μM NADH, 77 μM cytochrome C, and 5 ng of NQO1 protein. Enzymatic reaction was initiated by adding NADH and performed at 37° C. In this regard, a reaction rate was measured by observing absorbance, which was increased due to reduction of cytochrome C, at 550 nm for 10 minutes and NQO1 activity was represented as an amount of reduced cytochrome C [nmol cytochrome C reduced/min/μg protein].
Extinction coefficient for cytochrome C:21.1 mmol/L/cm=21.1 μmol/ml/cm

[1] = 5 μM, 37° C., absorbance at 550 nm for 10 minutes, 200 μM NADH, 77 μM cytochrome C, 5 ng NQO1 protein
[2] = Exp. Ex. 3-2: 10.5 week-old ob/ob mice, 150 mg/kg orally, six days
[3] = Exp. Ex. 3-3: 6 week-old ob/ob mice, 100 mg/kg orally, otherwise as 3-1
[4] = Exp. Ex. 3-4: 11 week-old ob/ob mice, 100 mg/kg orally, six days
[5] = Exp. Ex. 3-6: 12 week-old ob/ob mice, 150 mg/kg orally, seven days
[6] = Exp. Ex. 3-8: 9.5 week-old ob/ob mice, 150 mg/kg orally, otherwise as 3-1
[7] = Exp. Ex. 3-7: 6.5 week-old ob/ob mice, 150 mg/kg orally, seven days

Sequence of NQO1 protein (P15559 whole entry, species assumed): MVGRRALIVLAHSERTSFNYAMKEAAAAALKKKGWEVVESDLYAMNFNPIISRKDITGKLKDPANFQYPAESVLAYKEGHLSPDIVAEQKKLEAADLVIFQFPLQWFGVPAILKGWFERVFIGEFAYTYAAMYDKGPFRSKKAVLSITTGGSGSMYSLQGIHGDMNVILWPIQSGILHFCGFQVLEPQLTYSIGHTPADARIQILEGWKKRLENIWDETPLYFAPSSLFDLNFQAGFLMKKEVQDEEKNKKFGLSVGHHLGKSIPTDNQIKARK

## CC(C)c1nc2c(o1)-c1ccccc1C(=O)C2=O [Example 1, 2-isopropylnaphtho[2,1-d]oxazole-4,5-dione]
cells
  Lactate change amount within cells (nmol/mg cell): 5.2 nmol/mg cell
C57BL/6J Lep ob/ob mice
  weight increase ratio vs controls (FIG. 1): significantly decreased
NQO1 protein; [1]
  NQO1 activity (5 μM, [nmol cytochrome C reduced/min/μg protein]): 255.2 nmol cytochrome C reduced/min/μg protein

## CC(C)(C)c1nc2c(o1)-c1ccccc1C(=O)C2=O [Example 2, 2-tert-butylnaphtho[2,1-d]oxazole-4,5-dione]
cells
  Lactate change amount within cells (nmol/mg cell): 6.8 nmol/mg cell
C57BL/6J Lep ob/ob mice
  weight increase ratio vs controls (FIG. 1): significantly decreased
NQO1 protein; [1]
  NQO1 activity (5 μM, [nmol cytochrome C reduced/min/μg protein]): 243.2 nmol cytochrome C reduced/min/μg protein

## O=C1C(=O)c2nc(CN3CCOCC3)oc2-c2ccccc21 [Example 4, 2-(morpholinomethyl)naphtho[2,1-d]oxazole-4,5-dione]
cells
  Lactate change amount within cells (nmol/mg cell): 9.3 nmol/mg cell
C57BL/6J Lep ob/ob mice; [2]
  intake amount vs controls (FIG. 2): significantly decreased
  weight change vs controls (FIG. 2): significantly decreased
  weight increase ratio vs controls (FIG. 2): significantly decreased
NQO1 protein; [1]
  NQO1 activity (5 μM, [nmol cytochrome C reduced/min/μg protein]): 207.3 nmol cytochrome C reduced/min/μg protein

## CN(C)Cc1nc2c(o1)-c1ccccc1C(=O)C2=O [Example 5, 2-((dimethylamino)methyl)naphtho[2,1-d]oxazole-4,5-dione]
cells
  Lactate change amount within cells (nmol/mg cell): 5.9 nmol/mg cell
C57BL/6J Lep ob/ob mice; mouse, in vivo, po, 150 mg/kg
  intake amount vs controls (FIG. 2): significantly decreased
  weight change vs controls (FIG. 2): significantly decreased

## COc1cccc2c1-c1oc(C(C)C)nc1C(=O)C2=O [Example 8, 2-isopropyl-9-methoxynaphtho[2,1-d]oxazole-4,5-dione]
cells
  Lactate change amount within cells (nmol/mg cell): 6.2 nmol/mg cell
C57BL/6J Lep ob/ob mice; [3]
  intake amount vs controls (FIG. 3): significantly decreased
  weight increase ratio vs controls (FIG. 3): significantly decreased
NQO1 protein; [1]
  NQO1 activity (5 μM, [nmol cytochrome C reduced/min/μg protein]): 205.1 nmol cytochrome C reduced/min/μg protein

## COc1ccc(Br)c2c1-c1oc(C(C)C)nc1C(=O)C2=O [Example 9, 6-bromo-2-isopropyl-9-methoxynaphtho[2,1-d]oxazole-4,5-dione]
cells
  Lactate change amount within cells (nmol/mg cell): 7.3 nmol/mg cell
C57BL/6J Lep ob/ob mice; [4]
  weight change vs controls (FIG. 4): significantly decreased
  weight increase ratio vs controls (FIG. 4): significantly decreased
NQO1 protein; [1]
  NQO1 activity (5 μM, [nmol cytochrome C reduced/min/μg protein]): 73.6 nmol cytochrome C reduced/min/μg protein

## O=C1C(=O)c2oc(-c3ccccc3)nc2-c2ccccc21 [Example 27]
cells
  Lactate change amount within cells (nmol/mg cell): 5.8 nmol/mg cell
C57BL/6J Lep ob/ob mice; mouse, in vivo, po, 100 mg/kg
  weight change vs controls (FIG. 4): significantly decreased

## CC(C)(C)c1nc2c(o1)C(=O)C(=O)c1ccccc1-2 [Example 28, 2-tert-butylnaphtho[1,2-d]oxazole-4,5-dione]
cells
  Lactate change amount within cells (nmol/mg cell): 7.4 nmol/mg cell
C57BL/6J Lep ob/ob mice; mouse, in vivo, po, 100 mg/kg
  intake amount vs controls (FIG. 3): significantly decreased

## CC(C)(C)c1nc2c(o1)C(=O)C(=O)c1cc(N)ccc1-2 [Example 30, 7-amino-2-tert-butylnaphtho[1,2-d]oxazole-4,5-dione]
cells
  Lactate change amount within cells (nmol/mg cell): 7.3 nmol/mg cell
C57BL/6J Lep ob/ob mice; mouse, in vivo, po, 150 mg/kg
  intake amount vs controls (FIG. 5): significantly decreased
  weight change vs controls (FIG. 5): significantly decreased

## O=C1C(=O)c2oc(-c3ccc(F)cc3)nc2-c2cccnc21 [Example 36]
cells
  Lactate change amount within cells (nmol/mg cell): 7.3 nmol/mg cell
C57BL/6J Lep ob/ob mice; [5]
  intake amount vs controls (FIG. 6): significantly decreased
  weight change vs controls (FIG. 6): significantly decreased
  weight increase ratio vs controls (FIG. 6): significantly decreased
NQO1 protein; [1]
  NQO1 activity (5 μM, [nmol cytochrome C reduced/min/μg protein]): 936.1 nmol cytochrome C reduced/min/μg protein

## CCn1c2c(oc1=O)-c1ccccc1C(=O)C2=O [Example 41]
cells
  Lactate change amount within cells (nmol/mg cell): 5.2 nmol/mg cell
C57BL/6J Lep ob/ob mice; mouse, in vivo, po, 150 mg/kg
  intake amount vs controls (FIG. 7): significantly decreased in some sections
  weight change vs controls (FIG. 7): significantly decreased in some sections
  weight increase ratio vs controls (FIG. 7): significantly decreased in some sections
NQO1 protein
  NQO1 activity (5 μM, [nmol cytochrome C reduced/min/μg protein]): 237.1 nmol cytochrome C reduced/min/μg protein

## O=C1C(=O)c2c(oc(=O)n2Cc2ccc(F)cc2)-c2ccccc21 [Example 42]
cells
  Lactate change amount within cells (nmol/mg cell): 7.1 nmol/mg cell
C57BL/6J Lep ob/ob mice; [6]
  intake amount vs controls (FIG. 8): significantly decreased in some sections
  weight change vs controls (FIG. 8): significantly decreased in some sections
  weight increase ratio vs controls (FIG. 8): significantly decreased in some sections
NQO1 protein; [1]
  NQO1 activity (5 μM, [nmol cytochrome C reduced/min/μg protein]): 208.0 nmol cytochrome C reduced/min/μg protein

## CCc1nc2c(o1)C(=O)C(=O)c1ccccc1-2 [Example 51]
cells
  Lactate change amount within cells (nmol/mg cell): 5.7 nmol/mg cell
C57BL/6J Lep ob/ob mice; [7]
  intake amount vs controls (FIG. 7): significantly decreased in some sections
  weight change vs controls (FIG. 7): significantly decreased in some sections
  weight increase ratio vs controls (FIG. 7): significantly decreased in some sections
NQO1 protein; [1]
  NQO1 activity (5 μM, [nmol cytochrome C reduced/min/μg protein]): 240.9 nmol cytochrome C reduced/min/μg protein
